Source: article PMC9706920, “Aryloxypropanolamine targets amyloid aggregates and reverses Alzheimer-like phenotypes in Alzheimer mouse models” (Alzheimer's Research & Therapy, 2022)

Assays:
[1] = Microsomal stability, rat; type: in vitro ADME; conditions: 1 μM, 30 min, 37°C
Experimental: To evaluate the rate of drug metabolism, we tested YIAD002 stability in liver microsomes of human, rat, and mouse. Microsomal concentration was 0.5 mg/ml in 0.1 M phosphate buffer (pH 7.4). 1 μM of YIAD002 was added to microsome solutions and was prewarmed at 37°C for 5 min. NADPH-regenerating solution was added to microsomes and incubated at 37°C for 30 min. At the end of incubation, acetonitrile with chlorpropamide was added to stop reactions and microsomal solutions were centrifuged at 14,000 rpm at 4°C for 5 min. For LC-MS/MS analysis, supernatants were injected on a Kinetex C18 column (2.1 × 100 mm, 2.6 μm particle size, Phenomenex, USA). The composition of the mobile phase was 0.1% formic acid in water (A) and 0.1% formic acid in acetonitrile (B).

Plasma stability, rat = type: in vitro ADME; conditions: 10 μM, 37°C, vs 0 min
Experimental: To assess the plasma stability of YIAD002, […] rat plasma and incubated at 37°C for the following time points: 0, 30, and 120 min. At the end of incubation, acetonitrile with chlorpropamide was added to stop reactions. The solutions were centrifuged at 14,000 rpm at 4°C for 5 min and the supernatant was analyzed with LC-MS/MS. High performance liquid chromatography was carried out on a Kinetex C18 column (2.1 × 100 mm, 2.6 μm particle size, Phenomenex, USA). The composition of the mobile phase was 0.1% formic acid in water (A) and 0.1% formic acid in acetonitrile (B).

CYP 2C9 = molecular target: T1, CYP 2C9 (Homo sapiens, UniProt P11712); experiment: CYP450 inhibition assay, 2C9; type: in vitro ADME; conditions: YIAD002 10 μM, human liver microsomes; weak or no inhibition; read-out: CYP 2C9 inhibition, IC50 (inhibition criteria)
T1 construct: contained human liver microsomes (0.25 mg/ml); from tissue; host or cells: human liver microsomes
T1 sequence (P11712 whole entry): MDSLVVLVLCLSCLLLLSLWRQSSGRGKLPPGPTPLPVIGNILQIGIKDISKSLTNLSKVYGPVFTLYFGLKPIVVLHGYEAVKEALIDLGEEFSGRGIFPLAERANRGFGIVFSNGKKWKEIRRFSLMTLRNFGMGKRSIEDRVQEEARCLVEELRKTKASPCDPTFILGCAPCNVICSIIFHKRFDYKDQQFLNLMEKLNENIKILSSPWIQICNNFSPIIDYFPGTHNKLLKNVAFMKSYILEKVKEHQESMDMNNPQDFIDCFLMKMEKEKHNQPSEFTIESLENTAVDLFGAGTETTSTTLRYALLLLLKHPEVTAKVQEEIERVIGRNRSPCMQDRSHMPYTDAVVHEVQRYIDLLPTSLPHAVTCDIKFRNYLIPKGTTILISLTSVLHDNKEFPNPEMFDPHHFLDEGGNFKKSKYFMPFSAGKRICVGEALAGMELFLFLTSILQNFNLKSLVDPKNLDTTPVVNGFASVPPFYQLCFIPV
Experimental: (§1) Incubation mixtures for Cytochrome P450s (CYPs) inhibition assay contained human liver microsomes (0.25 mg/ml), 0.1 M phosphate buffer (pH 7.4), 10 μM of YIAD002, and an enzyme substrate cocktail (phenacetin 50 μM, diclofenac 10 μM, S-mephenytoin 100 μM, dextromethorphan 5 μM, and midazolam 2.5 μM). The mixture was pre-incubated at 37°C for 5 min and 1 mM NAPDH was added to initiate reactions. After 15 min of incubation, acetonitrile with terfenadine was added to stop reactions and microsomal solutions were centrifuged at 14,000 rpm at 4°C for 5 min. For LC-MS/MS analysis, supernatants were injected on a Kinetex C18 column (2.1 × 100 mm, 2.6 μm particle size, Phenomenex, USA). The composition of the mobile phase was 0.1% formic acid in water (A) and 0.1% formic acid in acetonitrile (B).

CYP 2D6 = molecular target: T2, CYP 2D6 (Homo sapiens, UniProt P10635); experiment: CYP450 inhibition assay, 2D6; type: in vitro ADME; conditions: YIAD002 10 μM, human liver microsomes; weak or no inhibition; read-out: CYP 2D6 inhibition, IC50 (inhibition criteria)
T2 construct: contained human liver microsomes (0.25 mg/ml); from tissue; host or cells: human liver microsomes
T2 sequence (P10635 whole entry): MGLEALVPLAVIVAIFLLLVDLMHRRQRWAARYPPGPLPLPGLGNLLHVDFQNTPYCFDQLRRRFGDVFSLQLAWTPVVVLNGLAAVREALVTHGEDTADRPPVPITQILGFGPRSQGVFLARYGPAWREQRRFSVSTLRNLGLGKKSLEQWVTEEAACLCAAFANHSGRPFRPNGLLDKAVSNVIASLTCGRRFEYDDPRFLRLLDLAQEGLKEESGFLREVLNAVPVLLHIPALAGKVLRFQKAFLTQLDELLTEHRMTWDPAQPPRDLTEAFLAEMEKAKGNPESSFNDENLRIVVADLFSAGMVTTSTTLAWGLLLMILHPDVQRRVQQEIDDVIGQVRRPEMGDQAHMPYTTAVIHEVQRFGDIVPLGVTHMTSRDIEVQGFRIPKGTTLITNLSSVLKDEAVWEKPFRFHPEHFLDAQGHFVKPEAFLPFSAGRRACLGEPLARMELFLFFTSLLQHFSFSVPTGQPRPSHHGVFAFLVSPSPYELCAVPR
Experimental: as §1

Plasma stability, human = type: in vitro ADME; conditions: 10 μM, 37°C, vs 0 min
Experimental: To assess the plasma stability of YIAD002, YIAD002 stock was dissolved at a concentration of […] in DMSO. 5 μL of YIAD002 stock was added to 195 μL of human plasma or 195 μL of rat plasma and incubated at 37°C for the following time points: 0, 30, and 120 min. At the end of incubation, acetonitrile with chlorpropamide was added to stop reactions. The solutions were centrifuged at 14,000 rpm at 4°C for 5 min and the supernatant was analyzed with LC-MS/MS. High performance liquid chromatography was carried out on a Kinetex C18 column (2.1 × 100 mm, 2.6 μm particle size, Phenomenex, USA). The composition of the mobile phase was 0.1% formic acid in water (A) and 0.1% formic acid in acetonitrile (B).

[2] = molecular target: T3, Aβ-Aβ interactions (Aβ(1–42) fragments) (Homo sapiens, UniProt P05067); experiment: Mapping assay of Aβ(1–42) with peptide fragments; type: biochemical; conditions: YIAD002 500 μM, 24 h, Flamma 552-labeled Aβ(1–42) 10 μM, compared to full-length Aβ(1–42) control
T3 construct: we added monomeric Aβ(1–42) (10 μM) labeled with fluorescent dye Flamma 552 to each well
T3 sequence (P05067 672-713): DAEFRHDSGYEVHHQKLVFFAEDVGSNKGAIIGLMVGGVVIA
Experimental: Aβ fragments made up of six overlapping amino acid residues and a cysteine residue at the C-terminal were acquired by Fmoc solid phase peptide synthesis as previously described. Full length Aβ(1–42) with an additional cysteine residue at the C-terminal was used for comparison. The peptides were dissolved in DMSO ([…]) and diluted in binding buffer (0.1 M sodium phosphate, 0.15 M sodium chloride, 10 mM EDTA; pH 7.2) to prepare 50 μg/mL peptide solutions. To immobilize the Aβ fragments and monomers to maleimide-activated microplates, 100 μL of peptide solutions (50 μg/mL) was added and incubated at RT for 2 h while shaking. Cysteine solution (10 μg/mL with binding buffer) was added to cap unreacted maleimide groups. […] To define the fluorescence baseline for each well, fluorescence intensity was measured at 555 (excitation) and 580 (emission). YIAD002 (500 μM in binding buffer, 7.5% DMSO) was added to each well and incubated at RT for 24 h while shaking. Fluorescence intensity was remeasured at 555 (excitation) and 580 (emission) and baseline fluorescence was subtracted to quantify the change in fluorescence intensity caused by YIAD002. The plate was washed with 200 μL of wash buffer (0.1 M sodium phosphate, 0.15 M sodium chloride, 0.05% Tween®-20 Detergent; pH 7.2) per well three times in between steps.

CCC(C)(C)c1ccc(OCC(O)CN2CCCC2)c(C(C)(C)CC)c1.Cl (centres unmarked) [YIAD002, 1-(3-(2,4-Di-tert-pentylphenoxy)-2-hydroxypropyl)pyrrolidin-1-ium chloride]
Remaining compound in rat microsomes [1]: 11.2%
Compound remaining in rat plasma (Plasma stability, rat; 30 min): 94.5%
Compound remaining in rat plasma (Plasma stability, rat; 120 min): 87.7%
IC50 (CYP 2C9): > 10 µM
IC50 (CYP 2D6): > 10 µM
Compound remaining in human plasma (Plasma stability, human; 30 min): 96.3%
Compound remaining in human plasma (Plasma stability, human; 120 min): 92.6%
Dissociation of Aβ-Aβ interactions at immobilised Aβ fragments [2]: markedly dissociated Aβ-Aβ interactions at residues Aβ(16–21), KLVFFA, and Aβ(32–37), IGLMVG
